Data taken from publication PMC8121762, “Peptidomics of enteroendocrine cells and characterisation of potential effects of a novel preprogastrin derived-peptide on glucose tolerance in lean mice” (Peptides, 2021).
Read-outs that look alike come from different tables or passages of the source. Where a SMILES comes first, the peptide text is derived from it. [ ]: non-standard residue; d: D form. pGlu = O=C1CC[C@@H](C(=O)O)N1

How the values were obtained:
primary mouse islets = assay: Islet secretion studies; format: cell-based; conditions: 100 nM peptide, 1 or 16.7 mM glucose, 45 min at 37 °C, LC–MS/MS, n = 9 per group, Mann-Whitney U test
Method: Mice were culled by cervical dislocation and the pancreas inflated by […] injection of a 0.75 mg/mL collagenase V (Sigma-Aldrich) solution in HBSS before removal of the pancreas. The pancreas was incubated at 37 °C for 12 min to liberate islets. The digested tissue was washed in HBSS with 0.1 % BSA before islets were hand-picked under a light microscope. Islets were rested for 1 h by incubating at 37 °C in Krebs’s ringer buffer (KRB, 129 mM NaCl, 2 mM NaHCO3, 4.8 mM KCl, 1.2 mM KH2PO4, 2.5 mM CaCl2, 1.2 mM MgSO4, 10 mM HEPES and adjusted to pH 7.4 with 1 M NaOH.) with 0.1 % BSA and 5.5 mM glucose. Ten size matched islets were then transferred to a 2 mL protein LoBind Eppendorf tubes for 45 min at 37 °C with KRB + 0.001% BSA + one of the following: 1 mM glucose, 16.7 mM glucose, 1 mM glucose + 100 nM Gast p59−79 or 16.7 mM glucose + 100 nM Gast p59−79. At the end of the incubation the supernatant was removed and snap frozen. On the day of analysis all supernatants were defrosted, acidified with 30 μL of 1% FA (aq) (v/v) and extracted with SPE.
Peptides were quantified on as in section 2.8.3. Table 2 details the peptides quantified as well as their product ions, precursor ions, collision energies and dwell times.
Fig. 9 Effect of Gast p59-79 on glucagon (A), insulin-1 (B) and SST-14 (C) secretion from isolated mouse islets. Data represents n = 9 per group. Statistical analysis was performed using a Mann-Whitney U test. Data expressed as peak area normalised to islet number.

[1] = Pharmacokinetics studies in mice (i.v. and s.c. bolus, plasma LC–MS/MS); format: in vivo; conditions: mouse; for AUC: tail vein blood over 90 min
Method: Male and female mice aged between 12–18 weeks old were used for these studies. Gast p59−79, ChgA 435−462a and Sst 25−36 were administered intravenously (i.v.) at 1 mg/kg and subcutaneously (s.c.) at various doses (see Fig. 7A, B and C for details on specific doses for each peptide). Blood samples were collected using EDTA coated microvette tubes (Starsedt, Leicester, UK) from the tail vein at various time points over 90 min. Blood was centrifuged (2000 g, 10 min, 4 °C) and the plasma separated. A 0.1 M sodium citrate (Sigma-Aldrich) buffer (adjusted to pH 3 with citric acid (Sigma-Aldrich)) was added to the plasma at a dilution of 1 in 10 to prevent degradation of Gast p59−79 and Sst 25−36. Plasma was stored -70 °C till extraction.
On the day of analysis, plasma samples were thawed, spiked with a stable isotope labelled version of Gast p59−79, ChgA 435−462a or Sst 25−36, and crashed with 200 μL 80 % ACN. After centrifuging, supernatants were removed and dried under gaseous nitrogen at 40 °C using a SPE Dry evaporator system (Biotage, Upsalla, Sweden). SPE was performed as described previously.
A Xevo TQ-XS triple quadrupole mass spectrometer coupled to H-class Aquity UPLC system enabled high throughput and targeted sample analysis. The column used was a Waters HSS T3 2.1 × 50 mm column at 60 °C and flowing at 350 μL/min. LC–MS/MS analysis was performed using positive ESI with a spray voltage of 3 kV, desolvation temperature 600°C, gas flow rate 1000 L/h and cone voltage of 40 V. Solvent A was 0.1 % FA in water (v/v) and Solvent B was 0.1 % FA in ACN (v/v). Each sample (40 μL per sample) was injected onto the column for 30 s with starting conditions set at 90 % A and 10 % B before the % B was increased to 50 % over the course of 3.5 min. The column was flushed with 90 % B for 1.5 min before initial conditions were restored. Total run time per sample was 5.5 min. Table 1 details the specifications used to quantify Gast p59−79, ChgA 435−462a, Sst 25−36 and their stable isotope labelled versions on a Xevo TQ-XS mass spectrometer.
Raw data files obtained on the Xevo TQ-XS triple quadrupole mass spectrometer were analysed using TargetLynx XS v4.2 software (Waters). Peptides were quantified by integrating the corresponding peaks and normalised to an internal standard if available. For pharmacokinetics studies, the concentration of peptide was estimated by comparing against a calibration line. SAAM II v2.2.1 (The Epsilon Group) with a Rosenbrock integrator and no maximum number of iterations was used to create a model for Gast p59−79 distribution and elimination upon single dose administration to mice.

CC[C@H](C)[C@H](NC(=O)[C@H](Cc1ccccc1)NC(=O)[C@H](Cc1c[nH]cn1)NC(=O)[C@H](CCC(N)=O)NC(=O)[C@@H]1CCCN1C(=O)CNC(=O)[C@H](CCC(N)=O)NC(=O)[C@@H]1CCCN1C(=O)CNC(=O)[C@H](CC(C)C)NC(=O)[C@@H]1CCC(=O)N1)C(=O)N[C@@H](C)C(=O)N[C@@H](CC(=O)O)C(=O)N[C@@H](CC(C)C)C(=O)N[C@@H](CO)C(=O)N[C@@H](CCCCN)C(=O)N[C@@H](CCCCN)C(=O)N[C@@H](CCC(N)=O)C(=O)N[C@@H](CCCNC(=N)N)C(=O)N1CCC[C@H]1C(=O)N[C@@H](CCCNC(=N)N)C(=O)O [Gast p59−79] ([pGlu]LGPQGPQHFIADLSKKQRPR-OH; C-terminus assumed)
SST-14 secretion from isolated islets (primary mouse islets): No significant effect
glucagon secretion from isolated islets (primary mouse islets): No significant effect
insulin-1 secretion from isolated islets (primary mouse islets): No significant effect
AUC ([1]; both sexes, C57BL/6 N J, iv, 1 mg/kg, plasma LC–MS/MS): 0.503 µg·h/mL
Clearance ([1]; both sexes, C57BL/6 N J, plasma, iv, i.v., 1 mg/kg, read-out: Clearance (converted)): 0.332
AUC ([1]; both sexes, C57BL/6 N J, sc, 10 mg/kg, plasma LC–MS/MS): 0.558 µg·h/mL
half-life ([1]; both sexes, C57BL/6 N J, sc, administered subcutaneously, plasma LC–MS/MS): 18.1 min
mass delivery rate required to obtain steady state concentration of 1 nM ([1]; estimated from PK data (SAAM II model), osmotic pump infusion): 0.77 mg/kg/day
Clearance ([1]; s.c., 10 mg/kg): 0.0179 L/h/kg
Bioavailability (%) ([1]; s.c., 10 mg/kg, plasma LC–MS/MS): 110%
bioavailability when administered subcutaneously (in words) ([1]; s.c., text summary of table S1): good bioavailability
